The text below walks through data of publication PMC7449170, “ATI-2173, a Novel Liver-Targeted Non-Chain-Terminating Nucleotide for Hepatitis B Virus Cure Regimens” (Antimicrobial Agents and Chemotherapy, 2020).

Molecules are shown by their SMILES. Where two headings read alike, the source gives them in different places. Some results are limits rather than exact numbers.

Series [1] concerns HBV wild type (U95551). The experiment in a line: Cross-resistance in transfected HepG2 cells, wild type. The class given is cell-based, Hepatitis B virus.
Series [2] relates to HBV. The experiment in a line: HBV combination studies with ATI-2173 in primary human hepatocytes (MacSynergy). The class given is cell-based, Hepatitis B virus. The note with it: compound combined with ATI-2173, primary human hepatocytes; for Combination index: MacSynergy.
The subject of series [3] is HBV coreT33N. The series is described as follows: microbe, parasite or virus in culture. The series is classed as cell-based, Hepatitis B virus. The note with it: HepG2 cells, mutation coreT33N; read-out: EC50.
Series [4] deals with HBV coreP25A. The experiment in a line: microbe, parasite or virus in culture. The class given is cell-based, Hepatitis B virus. Particulars: HepG2 cells, mutation coreP25A; read-out: EC50.
The test system of series [5] is HBV genotype D. The experiment in a line: Anti-HBV activity in HepG2.2.15 cells (extracellular HBV DNA by qPCR). The series is classed as cell-based. Particulars: Hepatitis B virus. As for the experimental part: ATI-2173 was obtained from WuXi SynTheAll. Entecavir (positive control) was obtained from Shanghai Titan Scientific Co., Ltd. HepG2.2.15 cells (derived from human hepatoblastoma cell-like HepG2) contain four 5′ to 3′ tandem copies of the HBV genotype D and were provided by WuXi. HepG2.2.15 cells were cultured in Dulbecco’s modified Eagle medium (DMEM)/F12 (Invitrogen, 11330032) supplemented with 2% fetal bovine serum (FBS) (HyClone, SV30087.03), 1% L-glutamine, 1% minimum essential medium (MEM) nonessential amino acid solution (NEAA), and 1% penicillin-streptomycin solution. QIAamp 96 DNA blood kit was purchased from Qiagen (51162). […] Culture medium containing ATI-2173 or entecavir (serially diluted) was added to cells on day 2 and refreshed on day 5. ATI-2173 dilutions were: 0.0006, 0.0024, 0.0098, 0.0391, 0.1563, 0.6250, 2.5000, and 10.0000 μM. On day 8, cell culture supernatants were collected and DNA was extracted by the QIAamp 96 DNA blood kit. qPCR was run at 95°C for 10 min, then cycled at 95°C for 15 s, 60°C for 1 min, for a total of 40 cycles. HBV DNA content in the samples was calculated according to the standard curve and CT (cycle threshold of qPCR) values of a sample. Data were normalized for maximum and minimum copy numbers.
A general note: In qPCR the cycle at which signal appears reflects the starting amount.

Series [6] is described as follows: in vitro. Particulars: human.
Experimental: HK-2 human kidney cells were obtained from ATCC (Manassas, VA) and cultured in Gibco Keratinocyte serum-free medium (Thermo Fisher Scientific, Waltham, MA) supplemented with 10% FBS (Peak Serum, Wellington, CO). Human skeletal muscle cells were obtained from Lonza (Walkersville, MD) and cultured in SkGM-2 skeletal muscle cell growth medium-2 (Lonza). Both HK-2 and skeletal muscle cells were cultured humidified at 37°C and 5% CO2. Cryopreserved human primary hepatocytes and medium were received from Lonza. Cryopreserved iCell cardiomyocytes and cardiomyocyte medium were purchased from Stem Cell Technologies (Vancouver, BC, Canada). Cryopreserved human bone marrow mononuclear cells were purchased from Lonza with HemaTox Myeloid medium purchased from [sequence] […] All cryopreserved cells (human primary hepatocytes, iCell cardiomyocytes, and human bone marrow mononuclear cells) were stored in vapor phase liquid nitrogen until the day of plating. […] Serial dilutions of compounds in DMSO were as follows: 100, 10, 1, 0.1, 0.01, 0.001, 0.0001, and 0.00001 μM (final concentration of DMSO in medium was 0.5%).
HK-2 and skeletal muscle cells were seeded into 96-well plates at 5,000 cells/well and incubated overnight at 37°C and 5% CO2. Human hepatocytes were thawed, diluted in hepatocyte plating medium (Lonza) and seeded into a 96-well, collagen-coated plates at 2.5 × 10^4 cells/well. Hepatocytes were incubated for 6 h at 37°C in 5% CO2, then the medium was aspirated and replaced with hepatocyte culture medium at 50 μl/well, and finally incubated overnight. The iCell cardiomyocytes were thawed, suspended in iCell thawing/plating medium, and plated at 4 × 10^4 cells/well in a gelatin-coated 96-well plate. iCells were incubated for 2 days at 37°C in 7% CO2. […]
Following incubation, cells were dosed and incubated for 72 h at 37°C and 5% CO2. Following incubation, the endpoint cell viability CellTiter-Glo 2.0 assay (Promega, San Luis Obispo, CA) was performed and luminescence data collected on a Synergy 4 plate reader (Biotek, Winooski, VT). […]
Series [7] relates to HBV. On the set-up: method as in PMID 8834884, PMID 7786007, PMID 20516559. The note with it: cell-based in vitro systems; read-out: Anti-HBV EC50; cited from earlier work.
The subject of series [8] is HBV DNA. On the set-up: method as in PMID 15239097. Particulars: patients, for 6 months following treatment; cited from earlier work.
The conditions of series [9]: in vivo, po; cited from earlier work.
Series [10] can be described thus: Cell viability (CC50) in HepG2.2.15 cells. Particulars: human.
For series [11] the following is noted: human, in vivo; cited from earlier work.
For series [12], the system named is HBV genotypes A, B, C, D, E, F, G, and H. The experiment in a line: microbe, parasite or virus in culture. The series is classed as cell-based. The note with it: Hepatitis B virus, HepG2, read-out: IC50s, inhibition of HBV DNA across genotypes.
Series [13] has as its system HBV rtS202G+M204I. The experiment in a line: microbe, parasite or virus in culture. The series is classed as cell-based. Particulars: Hepatitis B virus, HepG2.
Series [14] concerns HBV rtS202G+M204I+M250V. The series is described as follows: microbe, parasite or virus in culture. The class given is cell-based. Particulars: Hepatitis B virus, HepG2.
Series [15] deals with clevudine-resistant mutants. The note with it: mutants from viral break-through patients, predominantly M204I; cited from earlier work.
Series [16] has as its system HBV rtM204V. The series is described as follows: microbe, parasite or virus in culture. The series is classed as cell-based. The note with it: Hepatitis B virus, HepG2.
The test system of series [17] is HBV rtN236T. The experiment in a line: microbe, parasite or virus in culture. The note with it: Hepatitis B virus, HepG2. The series is classed as cell-based.
Series [18] relates to HBV rtL180M+M204V. The experiment in a line: microbe, parasite or virus in culture. The class given is cell-based. The note with it: Hepatitis B virus, HepG2.
The test system of series [19] is HBV rtM204I. The experiment in a line: microbe, parasite or virus in culture. The note with it: Hepatitis B virus, HepG2. The class given is cell-based.
The subject of series [20] is HBV rtA181V. The series is described as follows: microbe, parasite or virus in culture. The series is classed as cell-based. The note with it: Hepatitis B virus, HepG2.
Series [21] relates to HBV rtV173L+M204I. The experiment in a line: microbe, parasite or virus in culture. The class given is cell-based. The note with it: Hepatitis B virus, HepG2.

A word on the EC50: it is the concentration at which the effect is half-maximal. For the compound `CCOC(=O)C1=C(CN2CCOCC2)NC(c2nccs2)=NC1c1ccc(F)cc1Br` (stereo not shown) [GLS4], the half-maximal effective concentration (EC50) came to 15 nM in series [1], 3.08 µM in series [3] and 295 nM in series [4]. Further, in series [2], the Combination effect entry is listed as “Additive (A combination index of <25 is considered additive)”. Also, the Combination index in series [2] came out at 7.59.
With `Cc1cn([C@H]2O[C@@H](CO)[C@H](O)[C@H]2F)c(=O)[nH]c1=O` [Clevudine, 1-(2-fluoro-5-methyl-β,L-arabinofuranosyl) uracil], the EC50 is 100 nM in series [5] (HepG2.2.15, read-out: EC50, extracellular HBV DNA) and approximately 100 nM in series [7]. Also, the CC50 at 72 h in series [6] was more than 100 µM. The “Sustained viral suppression, reduction from baseline” value in series [8] was approximately 2 log10. Besides, the “Plasma concentrations at effective doses” value in series [9] is given as “up to 1 μM”. In addition, the CC50 in series [10] (HepG2.2.15 cells) is more than 10 µM. Further, the “Myopathy on long-term exposure” value in series [11] was “reversible proximal myopathy symptoms emerged”.
In the case of `Nc1ncnc2c1ncn2CCOCP(=O)(O)O` [Adefovir], in [2], the Combination effect result is reported as “Minor synergism (25 to 50 is considered minor synergism)” and the Combination index is 32.85.
For `C=C1[C@H](CO)[C@@H](O)C[C@@H]1n1cnc2c(=O)[nH]c(N)nc21` [Entecavir], the concentration giving a half-maximal response (EC50) in [5] (HepG2.2.15 cells, control compound, read-out: EC50, extracellular HBV DNA) was 0.6 nM; in series [1] (Hepatitis B virus), 3 nM; in series [13], 9.96 µM; in series [14] it was 21 µM. Also, in [2], the Combination effect entry is listed as “Minor synergism (25 to 50 is considered minor synergism)”. Moreover, in series [2], the Combination index is reported as 38.62. In addition, the IC50 in series [12] lay within 0.5 to 2.2 nM. In series [10], this compound had a CC50 of more than 0.05 µM. Also, the “Activity against clevudine-resistant mutants” value in series [15] was “not”.
Take `C[C@H](Cn1cnc2c(N)ncnc21)OCP(=O)(O)O` [Tenofovir]: in series [2], the Combination effect entry is reported as “Additive (A combination index of <25 is considered additive)” and the Combination index is on record as 8.56. For the same compound, the “Activity against clevudine-resistant mutants” value in [15] was “active”.
Consider `Nc1ccn([C@@H]2CS[C@H](CO)O2)c(=O)n1` [Lamivudine, reference compound], for which the half-maximal effective concentration (EC50) in [16] was 3.51 µM; in [17] it was 130 nM; in series [1] (Hepatitis B virus), 96 nM; in [18], more than 10 µM; in series [19], more than 10 µM; in [20] it was 210 nM. In [21], this compound came in with an EC50 of more than 10 µM. Also, in series [2], the Combination effect entry is listed as “Additive (A combination index of <25 is considered additive)”. In addition, the Combination index in [2] was −5.86.
In the case of `COc1ccccc1/C(Br)=C(\NC(=O)c1ccc([N+](=O)[O-])cc1)C(=O)N1CCCCC1` [AT-130], the EC50 was 246 nM in [1] and more than 10 µM in series [3].
